For test [1], the system named is glioma cell lines T98G, U87MG and GL261. Kind of test: Clonogenic cell survival assay after irradiation (radiosensitivity of glioma cell lines). As to conditions: pure phytocannabinoid used alone, increasing concentrations, 24 h prior to irradiation (0, 1, 2 and 5 Gy, Cs137); FIG. 2 / FIG. 3. Type of test: cell-based, human (T98G, U87MG); mouse (GL261). The method, then:
The human glioma cell lines T98G and U87MG were obtained from ATCC, and were lines derived from patients with a glioblastoma multiforme tumour and a glioblastoma astrocytoma respectively.
The mouse glioma cell line GL261, which is syngeneic to the C57BL/6 mouse was acquired from the NCI.
Cells were exposed to increasing doses of irradiation and then clonogenic cell survival assays were performed. The ability of the cells to survive an irradiation insult and go on and divide indefinitely forming a colony was assessed in this manner and used as our read-out of radiosensitivity.
Cells were initially seeded into flasks and left to adhere overnight. […] Cells were then harvested, counted and seeded again at increasing densities in 6-well plates, adjusting the density appropriately for the radiation dose, and then incubated for approximately 14 days. […] Colonies consisting of >50 cells were counted and calculated as a proportion of the number of cells initially seeded (surviving fraction). […]
Cells were initially seeded into flasks and left to adhere overnight. […] Cells were then harvested, counted and seeded again at increasing densities in 6-well plates, adjusting the density appropriately for the radiation dose, and then incubated for approximately 14 days. […] Colonies consisting of >50 cells were counted and surviving fraction was calculated. […]

Test [2] concerns U87 and U373 human glioma cell lines. As to conditions: cited from earlier work.
Test [3] has as its system U87 human glioma cells subcutaneously implanted to nude mice. The conditions noted are these: cited from earlier work.

On to `CCCCCc1cc(O)c2c(c1)OC(C)(C)[C@@H]1CCC(C)=C[C@@H]21` [THC, Tetrahydrocannabinol], for which the “effect on radiosensitivity (surviving fraction)” value in test [1] is reported as “did not appear to alter the radiosensitivity”.
In the case of `C=C(C)[C@@H]1CCC(C)=C[C@H]1c1c(O)cc(CCCCC)cc1O` [CBD, Cannabidiol], the “effect on radiosensitivity (surviving fraction)” value in test [1] was “did not appear to alter the radiosensitivity”. Also, the anti-proliferative effects in-vitro entry in test [2] is listed as “anti-proliferative effects”. In test [3], the anti-proliferative effects in-vivo entry is listed as “anti-proliferative effects”.

The record behind these values is US20160136127A1, “USE OF TETRAHYDROCANNABINOL AND/OR CANNABIDIOL FOR INCREASING RADIOSENSITVITY IN THE TREATMENT OF A BRAIN TUMOUR” (GW PHARMA LIMITED, priority 2013, published 2016).
